In patent US7666906B2, “β-Benzyloxyaspartate derivatives with amino group on benzene ring” (Suntory Holdings Limited, priority 2001, dated 2010):

Key:
human EAAT2 = biological target: T1, human EAAT2 (Homo sapiens, UniProt P43004); test: inhibition of [14C]glutamate uptake by human EAAT2 expressed on MDCK or COS-1 cells; assay type: cell-based; details: 1 μM L-[14C]glutamate, 12 minutes
T1 construct: expressed in transfected cells
Source text: (§1) Well-known methods can be used to determine inhibitory activity of the compounds of the invention on glutamate transporters. For example, the compounds of the invention have been confirmed to inhibit uptake of ^14C-labeled glutamate into cells by human EAAT2 and EAAT3 stably expressed on MDCK (Madin-Darby Canine Kidney) cells or transiently expressed on COS-1 cells.
(§2) A known method (Shimamoto, K. et al., Mol. Pharmacol. 53, 195-201, 1998; Bioorg. Med. Chem. Lett. 10, 2407-2410, 2000) was used to measure the inhibitory effect on uptake of [^14C]glutamate by human EAAT2 and EAAT3 stably expressed on MDCK (Madin-Darby Canine Kidney) cells or transiently expressed on COS-1 cells. The glutamate uptake activity was measured by adding 1 μM of L-[^14C]glutamate and a prescribed concentration of sample, incubating for 12 minutes and then lysating the cells, and using a liquid scintillator to determine the radioactivity uptake. The uptake was expressed as a percentage, with 100% being the uptake with no compound (buffer alone) and 0% being the uptake with a sodium-free solution.

human EAAT3 = biological target: T2, human EAAT3 (Homo sapiens, UniProt P43005); test: inhibition of [14C]glutamate uptake by human EAAT3 expressed on MDCK or COS-1 cells; assay type: cell-based; details: 1 μM L-[14C]glutamate, 12 minutes
T2 construct: expressed in transfected cells
T2 sequence (P43005 1-524): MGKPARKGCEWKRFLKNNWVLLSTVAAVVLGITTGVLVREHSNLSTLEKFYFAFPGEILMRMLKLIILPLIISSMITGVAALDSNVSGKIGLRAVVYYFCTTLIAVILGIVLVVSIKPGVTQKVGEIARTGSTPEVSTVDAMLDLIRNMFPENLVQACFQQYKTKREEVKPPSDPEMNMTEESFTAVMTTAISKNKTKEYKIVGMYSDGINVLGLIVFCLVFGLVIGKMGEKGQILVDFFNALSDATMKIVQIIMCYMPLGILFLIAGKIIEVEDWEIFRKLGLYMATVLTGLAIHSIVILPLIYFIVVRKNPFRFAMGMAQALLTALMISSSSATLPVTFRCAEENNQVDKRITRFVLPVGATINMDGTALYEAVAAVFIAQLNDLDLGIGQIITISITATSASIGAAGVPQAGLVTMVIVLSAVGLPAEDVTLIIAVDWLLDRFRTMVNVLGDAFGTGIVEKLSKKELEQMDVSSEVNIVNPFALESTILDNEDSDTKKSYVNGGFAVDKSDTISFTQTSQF
Source text: as §1, §2

[1] = COS-1 cells (transiently expressed), marked *

T1 sequence (P43004 whole entry): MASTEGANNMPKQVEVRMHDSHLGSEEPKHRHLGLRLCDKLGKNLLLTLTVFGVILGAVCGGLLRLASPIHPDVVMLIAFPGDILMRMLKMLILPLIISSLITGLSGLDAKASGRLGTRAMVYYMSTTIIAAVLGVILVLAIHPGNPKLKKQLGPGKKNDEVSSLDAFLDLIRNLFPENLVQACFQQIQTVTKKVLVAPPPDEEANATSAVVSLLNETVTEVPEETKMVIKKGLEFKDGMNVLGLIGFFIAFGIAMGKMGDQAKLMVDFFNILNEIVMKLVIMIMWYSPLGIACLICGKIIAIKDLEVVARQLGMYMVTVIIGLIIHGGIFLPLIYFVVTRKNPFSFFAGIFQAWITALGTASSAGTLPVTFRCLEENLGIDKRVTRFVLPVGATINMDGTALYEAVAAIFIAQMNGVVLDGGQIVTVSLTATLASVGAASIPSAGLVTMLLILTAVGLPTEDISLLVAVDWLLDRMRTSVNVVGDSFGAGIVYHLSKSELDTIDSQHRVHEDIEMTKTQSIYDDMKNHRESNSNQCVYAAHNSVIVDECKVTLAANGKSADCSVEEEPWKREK

Row | IC50 (human EAAT2; stably expressed on MDCK cells) | IC50 (human EAAT3; stably expressed on MDCK cells) | IC50 (human EAAT2; [1]) | IC50 (human EAAT3; [1]) | Structure (SMILES)
1 | 7300 ± 1100 nM | 2200 ± 200 nM | – | – | NCCCCCOc1ccc(C(=O)Nc2cccc(CO[C@H](C(=O)O)[C@H](N)C(=O)O)c2)cc1 [A-PenO-BzA-TBOA, (2S,3S)-3-[3-(N-(4-(5-aminopentyloxy)benzoyl)amino)benzyloxy]aspartic acid]
2 | 2100 ± 100 nM | 7900 ± 760 nM | – | – | Nc1cccc(CO[C@H](C(=O)O)[C@H](N)C(=O)O)c1 [A-TBOA, (2S,3S)-3-(3-aminobenzyloxy)aspartic acid]
3 | 13000 ± 1100 nM | 13000 ± 1100 nM | – | – | NCCC(=O)Nc1cccc(CO[C@H](C(=O)O)[C@H](N)C(=O)O)c1 [AA-TBOA, (2S,3S)-3-[3-(3-aminopropionylamino)benzyloxy]aspartic acid]
4 | 6300 ± 390 nM | 10000 ± 930 nM | – | – | N[C@H](C(=O)O)[C@H](OCc1cccc(NC(=O)CCNC(=O)CCCC[C@@H]2SC[C@@H]3NC(=O)N[C@@H]32)c1)C(=O)O [Bio-AA-TBOA, (2S,3S)-3-[3-(3-N-biotinylaminopropionylamino)benzyloxy]aspartic acid]
5 | 2200 ± 520 nM | 1100 ± 60 nM | – | – | N[C@H](C(=O)O)[C@H](OCc1cccc(NC(=O)c2ccc(OCCCCCNC(=O)CCCC[C@@H]3SC[C@@H]4NC(=O)N[C@@H]43)cc2)c1)C(=O)O [BioA-PenO-BzA-TBOA, (2S,3S)-3-[3-(N-(4-(5-biotynylaminopentyloxy)benzoyl)amino)benzyloxy]aspartic acid]
6 | 38000 ± 13000 nM | 25000 ± 2400 nM | – | – | N[C@H](C(=O)O)[C@H](OCc1cccc(NC(=O)CCCC[C@@H]2SC[C@@H]3NC(=O)N[C@@H]32)c1)C(=O)O [BioA-TBOA, (2S,3S)-3-[3-(N-biotinylamino)benzyloxy]aspartic acid]
7 | 55 ± 5 nM | 726 ± 98 nM | – | – | N[C@H](C(=O)O)[C@H](OCc1cccc(NC(=O)c2ccccc2)c1)C(=O)O [BzA-TBOA, (2S,3S)-3-[3-(N-benzoylamino)benzyloxy]aspartic acid]
8 | 1.9 ± 0.1 nM | 28 ± 1.8 nM | – | – | N[C@H](C(=O)O)[C@H](OCc1cccc(NC(=O)c2ccc(C(F)(F)F)cc2)c1)C(=O)O [CF3-BzA-TBOA, (2S,3S)-3-[3-[N-(4-trifluoromethylbenzoyl)amino]benzyloxy]aspartic acid]
9 | 244 ± 12 nM | 288 ± 8 nM | – | – | N[C@H](C(=O)O)[C@H](OCc1cccc(NC(=O)C2CCCCC2)c1)C(=O)O [CHexcA-TBOA, (2S,3S)-3-[3-(N-cyclohexylcarbonylamino)benzyloxy]aspartic acid]
10 | 36 ± 2.9 nM | 1400 ± 99 nM | – | – | N#Cc1ccc(C(=O)Nc2cccc(CO[C@H](C(=O)O)[C@H](N)C(=O)O)c2)cc1 [CN-BzA-TBOA, (2S,3S)-3-[3-[N-(4-cyanobenzoyl)amino]benzyloxy]aspartic acid]
11 | 49 ± 3.8 nM | 917 ± 30 nM | – | – | COc1ccc(C(=O)Nc2cccc(CO[C@H](C(=O)O)[C@H](N)C(=O)O)c2)cc1OC [DiMeO-BzA-TBOA, (2S,3S)-3-[3-[N-(3,4-dimethoxybenzoyl)amino]benzyloxy]aspartic acid]
12 | 22 ± 2.7 nM | 473 ± 13 nM | – | – | N[C@H](C(=O)O)[C@H](OCc1cccc(NC(=O)c2ccc(F)cc2)c1)C(=O)O [F-BzA-TBOA, (2S,3S)-3-[3-[N-(4-fluorobenzoyl)amino]benzyloxy]aspartic acid]
13 | 14 ± 1.4 nM | 278 ± 32 nM | – | – | N[C@H](C(=O)O)[C@H](OCc1cccc(NC(=O)c2ccc([N+](=O)[O-])cc2)c1)C(=O)O [NO2-BzA-TBOA, (2S,3S)-3-[3-[N-(4-nitrobenzoyl)amino]benzyloxy]aspartic acid]
14 | 7 ± 0.5 nM | 128 ± 12 nM | – | – | N[C@H](C(=O)O)[C@H](OCc1cccc(NC(=O)c2ccc(OC(F)(F)F)cc2)c1)C(=O)O [OCF3-BzA-TBOA, (2S,3S)-3-[3-[N-(4-trifluoromethoxybenzoyl)amino]benzyloxy]aspartic acid]
15 | 1.2 ± 0.04 nM | 18 ± 1.6 nM | – | – | CCCCCCOc1ccc(C(=O)Nc2cccc(CO[C@H](C(=O)O)[C@H](N)C(=O)O)c2)cc1 [OHex-BzA-TBOA, (2S,3S)-3-[3-[N-(4-n-hexyloxybenzoyl)amino]benzyloxy]aspartic acid]
16 | 21 ± 2.2 nM | 34 ± 19 nM | – | – | N[C@H](C(=O)O)[C@H](OCc1cccc(NC(=O)c2ccc(-c3ccccc3)cc2)c1)C(=O)O [Ph-BzA-TBOA, (2S,3S)-3-[3-[N-(4-phenylbenzoyl)amino]benzyloxy]aspartic acid]
17 | 143 ± 7.9 nM | 529 ± 32 nM | – | – | N[C@H](C(=O)O)[C@H](OCc1cccc(NC(=O)Cc2ccccc2)c1)C(=O)O [PhAcA-TBOA, (2S,3S)-3-[3-(N-phenylacetylamino)benzyloxy]aspartic acid]
18 | 1000 ± 130 nM | 4100 ± 670 nM | – | – | CC(C)(C)C(=O)Nc1cccc(CO[C@H](C(=O)O)[C@H](N)C(=O)O)c1 [Piv-A-TBOA, (2S,3S)-3-[3-(N-pivaroylamino)benzyloxy]aspartic acid]
19 | 2000 ± 210 nM | 7900 ± 460 nM | – | – | CCC(=O)Nc1cccc(CO[C@H](C(=O)O)[C@H](N)C(=O)O)c1 [Pr-A-TBOA, (2S,3S)-3-[3-(N-propionylamino)benzyloxy]aspartic acid]
20 | 6000 ± 1400 nM | 7600 ± 450 nM | – | – | CCC(=O)NCCC(=O)Nc1cccc(COC(C(=O)O)C(N)C(=O)O)c1 [Pr-AA-TBOA, (2S,3S)-3-[3-(3-N-propionylaminopropionylamino)benzyloxy]aspartic acid]
21 | 25 ± 0.5 nM | 182 ± 11 nM | – | – | CC(C)(C)c1ccc(C(=O)Nc2cccc(CO[C@H](C(=O)O)[C@H](N)C(=O)O)c2)cc1 [TBu-BzA-TBOA, (2S,3S)-3-[3-[N-(4-tert-butylbenzoyl)amino]benzyloxy]aspartic acid]
22 | 37 ± 2.5 nM | 356 ± 12 nM | – | – | COc1cccc(C(=O)Nc2cccc(CO[C@H](C(=O)O)[C@H](N)C(=O)O)c2)c1 [m-MeO-BzA-TBOA, (2S,3S)-3-[3-[N-(3-methoxybenzoyl)amino]benzyloxy]aspartic acid]
23 | 145 ± 2.2 nM | 1000 ± 42 nM | – | – | COc1ccccc1C(=O)Nc1cccc(CO[C@H](C(=O)O)[C@H](N)C(=O)O)c1 [o-MeO-BzA-TBOA, (2S,3S)-3-[3-[N-(2-methoxybenzoyl)amino]benzyloxy]aspartic acid]
24 | 12 ± 0.5 nM | 266 ± 20 nM | – | – | COc1ccc(C(=O)Nc2cccc(CO[C@H](C(=O)O)[C@H](N)C(=O)O)c2)cc1 [p-MeO-BzA-TBOA, (2S,3S)-3-[3-[N-(4-methoxybenzoyl)amino]benzyloxy]aspartic acid]
25 | – | – | 111000 ± 25000 nM | 295000 ± 118000 nM | CCC(=O)Nc1ccc(CO[C@H](C(=O)O)[C@H](N)C(=O)O)cc1 [p-Pr-A-TBOA, (2S,3S)-3-[4-(N-propionylamino)benzyloxy]aspartic acid]

Row | Structure (SMILES) | IC50 (human EAAT2; stably expressed on MDCK cells) | IC50 (human EAAT3; stably expressed on MDCK cells) | IC50 (human EAAT2; [1]) | IC50 (human EAAT3; [1])
26 | N[C@H](C(=O)O)[C@H](OCc1ccccc1)C(=O)O [TBOA, L-threo-β-benzyloxyaspartate, reference compound] | 1400 ± 120 nM | 1300 ± 110 nM | – | –
